From patent US20210139484A1, “DIHYDROISOQUINOLINE-2(1H)-CARBOXAMIDE AND RELATED COMPOUNDS AND THEIR USE IN TREATING MEDICAL CONDITIONS” (GOSSAMER BIO SERVICES, INC., priority 2018, published 2021)

Molecular target: T1, human HPK1 protein (Homo sapiens, UniProt Q92918)
T1 construct: recombinant human HPK1 protein (a.a. 1-346) was expressed in Sf9 insect cells; GST (N); purchased Signalchem M23-11G; host or cells: Sf9 insect cells (baculovirus)
T1 sequence (Q92918 1-346): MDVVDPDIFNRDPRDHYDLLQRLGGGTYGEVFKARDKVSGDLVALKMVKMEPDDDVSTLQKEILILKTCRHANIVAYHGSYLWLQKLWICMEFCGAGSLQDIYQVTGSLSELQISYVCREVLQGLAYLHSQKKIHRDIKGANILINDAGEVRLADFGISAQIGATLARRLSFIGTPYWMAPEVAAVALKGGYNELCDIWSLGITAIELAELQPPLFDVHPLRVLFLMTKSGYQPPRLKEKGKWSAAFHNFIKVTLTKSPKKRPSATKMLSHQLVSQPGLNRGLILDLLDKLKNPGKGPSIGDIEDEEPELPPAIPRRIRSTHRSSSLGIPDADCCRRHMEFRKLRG
Experiment: Human HPK1 protein TR-FRET assay
Format: biochemical
Settings: 1 mM ATP
Summary of the method: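 Read-out was TR-FRET using Eu-labeled anti-phospho-CREB (Ser133) antibody, with the 665/615 nm signal ratio normalised to DMSO-only wells and fitted by a 4-parameter logistic model for IC50. Reactions held 10 nM Sf9-expressed GST-HPK1 (a.a. 1-346), 100 nM CREBtide and 1 mM ATP, run 60 minutes at room temperature, pH 7.5.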

Structure (SMILES)	IC50 (Table 19) [nM]	IC50 (Table 20) [nM]
C[C@H]1c2cc(Oc3ccnc4[nH]ccc34)ccc2CCN1C(=O)Nc1ccc(OC2CCN(C)CC2)c(C(F)F)c1 [V-15]	500 to 5000	–
CCN1CCC(Oc2ccc(NC(=O)N3CCc4ccc(Oc5ccnc6[nH]ccc56)cc4[C@@H]3C)cc2C(F)F)CC1 [V-16]	500 to 5000	–
C[C@H]1c2cc(Oc3ccnc4[nH]ccc34)ccc2CCN1C(=O)Nc1ccc(OC2CCN(CCO)CC2)c(C(F)(F)F)c1 [V-17]	< 500	–
C[C@H]1c2cc(Oc3ccnc4[nH]ccc34)ccc2CCN1C(=O)Nc1ccc(CN2CCN(CCO)CC2)c(C(F)F)c1 [V-18]	< 500	–
C[C@H]1c2cc(Oc3ccnc4[nH]ccc34)ccc2CCN1C(=O)Nc1ccc(CN2CCN(CCO)CC2)c(C(F)(F)F)c1 [V-19]	< 500	–
CCN1CCN(Cc2ccc(NC(=O)N3CCc4ccc(Oc5ccnc6[nH]ccc56)cc4[C@@H]3C)cc2C(F)(F)F)C(=O)C1 [V-20]	500 to 5000	–
C[C@H]1c2cc(Oc3ccnc4[nH]ccc34)ccc2CCN1C(=O)Nc1ccc(CN2CCN(C3COC3)CC2)c(C(F)(F)F)c1 [V-21]	500 to 5000	–
CCc1cc2c(Oc3ccc4c(c3)[C@H](C)N(C(=O)Nc3ccc(CN5CCN(CC)CC5)c(C(F)(F)F)c3)CC4)ccnc2[nH]1 [V-22]	< 500	–
CCN1CCN(Cc2ccc(NC(=O)N3CCc4ccc(Oc5ccnc6[nH]c(C7(O)COC7)cc56)cc4[C@@H]3C)cc2C(F)(F)F)CC1 [V-23]	< 500	–
CCN1CCN(Cc2ccc(NC(=O)N3CCc4ccc(Oc5ccnc6[nH]c(CCO)cc56)cc4[C@@H]3C)cc2C(F)(F)F)CC1 [V-24]	< 500	–
CCN1CCN(Cc2ccc(NC(=O)N3CCc4ccc(Oc5ccnc6[nH]c(CCOC)cc56)cc4[C@@H]3C)cc2C(F)(F)F)CC1 [V-25]	< 500	–
CCN1CCN(Cc2ccc(NC(=O)N3CCc4ccc(Oc5ccnc6[nH]c(C7CC7)cc56)cc4[C@@H]3C)cc2C(F)(F)F)CC1 [V-26]	< 500	–
CCN1CCN(Cc2ccc(NC(=O)N3CCc4ccc(Oc5ccnc6[nH]c(-c7cnn(C)c7)cc56)cc4[C@@H]3C)cc2C(F)(F)F)CC1 [V-27]	< 500	–
CCN1CCN(Cc2ccc(NC(=O)N3CCc4ccc(Oc5ncnc6[nH]c(C)cc56)cc4[C@@H]3C)cc2C(F)(F)F)CC1 [V-28]	< 500	–
CCN1CCN(Cc2ccc(NC(=O)N3CCc4ccc(Oc5ccnc6[nH]c(C)cc56)cc4[C@@H]3C)cc2C(F)(F)F)CC1 [V-29]	< 500	–
Cc1cc2c(Oc3ccc4c(c3)[C@H](C)N(C(=O)Nc3cnc(OC5CCNCC5)c(C(F)(F)F)c3)CC4)ccnc2[nH]1 [VI-1]	< 500	–
Cc1cc2c(Oc3ccc4c(c3)[C@H](C)N(C(=O)Nc3cnc(OC5CCN(C)CC5)c(C(F)(F)F)c3)CC4)ccnc2[nH]1 [VI-2]	< 500	–
CCN1CCC(Oc2ncc(NC(=O)N3CCc4ccc(Oc5ccnc6[nH]c(C)cc56)cc4[C@@H]3C)cc2C(F)(F)F)CC1 [VI-3]	< 500	–
Cc1cc2c(Oc3ccc4c(c3)[C@H](C)N(C(=O)Nc3cnc(NC5CCN(C)CC5)c(C(F)(F)F)c3)CC4)ccnc2[nH]1 [VI-7]	< 500	–
Cc1cc2c(Oc3ccc4c(c3)[C@H](C)N(C(=O)Nc3cnc(OC5CN(C)C5)c(C(F)(F)F)c3)CC4)ccnc2[nH]1 [VI-12]	500 to 5000	–
Cc1cc2c(Oc3ccc4c(c3)[C@H](C)N(C(=O)Nc3cnc(Oc5ccncc5)c(C(F)(F)F)c3)CC4)ccnc2[nH]1 [VI-14]	5000 to 10000	–

Structure (SMILES)	IC50 (Table 19) [nM]	IC50 (Table 20) [nM]
Cc1cc2c(Oc3ccc4c(c3)[C@H](C)N(C(=O)Nc3cnc(OCCN(C)C)c(C(F)(F)F)c3)CC4)ccnc2[nH]1 [VI-15]	500 to 5000	–
Cc1cc2c(Oc3ccc4c(c3)[C@H](C)N(C(=O)Nc3cnc(OCCCN(C)C)c(C(F)(F)F)c3)CC4)ccnc2[nH]1 [VI-16]	500 to 5000	–
Cc1cc2c(Oc3ccc4c(c3)[C@H](C)N(C(=O)Nc3cnc(OCCn5ccnc5)c(C(F)(F)F)c3)CC4)ccnc2[nH]1 [VI-17]	500 to 5000	–
Cc1cc2c(Oc3ccc4c(c3)[C@H](C)N(C(=O)Nc3cnc(OC5CCN(CCO)CC5)c(C(F)(F)F)c3)CC4)ccnc2[nH]1 [VI-18]	< 500	–
CCN1CCN(Cc2ccc(NC(=O)N3CCc4ncc(Oc5ccnc6[nH]ccc56)cc4C3)cc2C(F)(F)F)CC1 [VII-1]	< 500	–
CCN1CCN(Cc2ccc(NC(=O)N3CCc4ncc(Oc5ncnc6[nH]ccc56)cc4C3)cc2C(F)(F)F)CC1 [VII-2]	500 to 5000	–
CCN1CCN(Cc2ccc(NC(=O)N3Cc4cc(Oc5ccnc6[nH]c(C)cc56)cnc4C(C)C3)cc2C(F)(F)F)CC1 (stereo not shown) [VII-3]	< 500	–
Cc1cc2c(Oc3cnc4c(c3)CN(C(=O)Nc3cnc(OC5CCN(C)CC5)c(C(F)(F)F)c3)CC4C)ccnc2[nH]1 (stereo not shown) [VII-6]	< 500	–
CC1CN(C(=O)Nc2cnc(OC3CCN(C)CC3)c(C(F)(F)F)c2)Cc2cc(Oc3ccnc4[nH]ncc34)cnc21 (stereo not shown) [VII-9]	500 to 5000	–
CC1CN(C(=O)Nc2cnc(OC3CCN(C)CC3)c(C(F)(F)F)c2)Cc2cc(Oc3ccnc4[nH]ncc34)cnc21 (stereo not shown) [VII-10]	< 500	–
CC1CN(C(=O)Nc2cnc(OC3CCN(C)CC3)c(C(F)(F)F)c2)Cc2cc(Oc3ccnc4[nH]ncc34)cnc21 (stereo not shown) [VII-11]	500 to 5000	–
Cc1cc2c(Oc3cnc4c(c3)CN(C(=O)Nc3cnc(OC5CCN(C)CC5)c(C(F)(F)F)c3)CC4C)ncnc2[nH]1 (stereo not shown) [VII-12]	< 500	–
Cc1cc2c(Oc3cnc4c(c3)CN(C(=O)Nc3cnc(OC5CCN(C)CC5)c(C(F)(F)F)c3)CC4C)ncnc2[nH]1 (stereo not shown) [VII-13]	< 500	–
Cc1cc2c(Oc3cnc4c(c3)CN(C(=O)Nc3cnc(OC5CCN(C)CC5)c(C(F)(F)F)c3)CC4C)ncnc2[nH]1 (stereo not shown) [VII-14]	< 500	–
CCN1CCN(Cc2ccc(NC(=O)N3Cc4cc(Oc5ccnc6[nH]ncc56)cnc4C(C)C3)cc2C(F)(F)F)CC1 (stereo not shown) [VII-15]	< 500	–
CCN1CCN(Cc2ccc(NC(=O)N3Cc4cc(Oc5ccnc6[nH]ncc56)cnc4C(C)C3)cc2C(F)(F)F)CC1 (stereo not shown) [VII-16]	< 500	–
CCN1CCN(Cc2ccc(NC(=O)N3Cc4cc(Oc5ccnc6[nH]ncc56)cnc4C(C)C3)cc2C(F)(F)F)CC1 (stereo not shown) [VII-17]	< 500	–
CCN1CCN(Cc2ccc(NC(=O)N3Cc4cc(Oc5ncnc6[nH]c(C)cc56)cnc4C(C)C3)cc2C(F)(F)F)CC1 (stereo not shown) [VII-18]	< 500	–
Cc1cc2c(Oc3cnc4c(c3)CN(C(=O)Nc3cnc(OC5CCN(C)CC5O)c(C(F)(F)F)c3)CC4C)ccnc2[nH]1 (stereo not shown) [VII-19]	< 500	–
CCN1CCN(Cc2ccc(NC(=O)N3CCc4ncc(Oc5ccnc6[nH]c(C)cc56)cc4C3C)cc2C(F)(F)F)CC1 (stereo not shown) [VIII-1]	500 to 5000	–
CCN1CCN(Cc2ccc(NC(=O)N3CCc4ncc(Oc5ccnc6[nH]ncc56)cc4C3C)cc2C(F)(F)F)CC1 (stereo not shown) [VIII-3]	500 to 5000	–

Structure (SMILES)	IC50 (Table 19) [nM]	IC50 (Table 20) [nM]
CCN1CCN(Cc2ccc(NC(=O)N3CCc4ncc(Oc5ncnc6[nH]c(C)cc56)cc4C3C)cc2C(F)(F)F)CC1 (stereo not shown) [VIII-6]	500 to 5000	–
CCN1CCN(Cc2ccc(NC(=O)N3CCc4cc(Oc5ccnc6[nH]ccc56)ccc4C3)cc2C(F)(F)F)CC1 [X-1]	500 to 5000	–
CCN1CCN(Cc2ccc(NC(=O)N3CCc4ccc(Oc5ccnc6[nH]ccc56)cc4C3=O)cc2C(F)(F)F)CC1 [X-2]	500 to 5000	–
CCN1CCN(Cc2ccc(NC(=O)N3CCc4ccc(Sc5ncnn6cccc56)cc4C3)cc2C(F)(F)F)CC1 [X-3]	500 to 5000	–
CCN1CCN(Cc2ccc(NC(=O)N3CC(C)c4ccc(Oc5ccnc6[nH]ccc56)cc4[C@@H]3C)cc2C(F)(F)F)CC1 (stereo partly shown) [X-4]	> 10000	–
CCN1CCN(Cc2ccc(NC(=O)N3CCc4nc(C)c(Oc5ccnc6[nH]ccc56)cc4C3)cc2C(F)(F)F)CC1 [X-5]	< 500	–
Cc1cc2c(Oc3ccc4c(c3)[C@H](C)N(C(=O)Nc3ccc5c(N6CCN(C)CC6)cccc5c3)CC4)ccnc2[nH]1 [X-6]	< 500	–
Cc1cc2c(Oc3ccc4c(c3)[C@H](C)N(C(=O)Nc3cnc5c(N6CCN(C)CC6)cccc5c3)CC4)ccnc2[nH]1 [X-7]	< 500	–
Cc1cc2c(Oc3ccc4c(c3)[C@H](C)N(C(=O)Nc3cnc5c(c3)CCCN5C3CCN(C)CC3)CC4)ccnc2[nH]1 [X-8]	5000 to 10000	–
CCN1CCN(Cc2ccc(NC(=O)N3CCc4ccc(-c5ccc6cc(NC)ncc6c5)cc4C3)cc2C(F)(F)F)CC1 [XI-1]	–	500 to 5000
CCN1CCN(Cc2ccc(NC(=O)N3CCc4c(cc(F)cc4Oc4ncnn5cccc45)C3)cc2C(F)(F)F)CC1 [XI-2]	–	500 to 5000
CCN1CCN(Cc2ccc(NC(=O)N3CCc4ncc(Oc5ccnc6[nH]ccc56)cc4[C@@H]3C)cc2C(F)(F)F)CC1 [XI-3]	–	< 500
CCN1CCN(Cc2ccc(NC(=O)N3CCc4ncc(Oc5ccnc6[nH]ccc56)cc4[C@H]3C)cc2C(F)(F)F)CC1 [XI-4]	–	500 to 5000
CCN1CCN(Cc2ccc(NC(=O)N3Cc4cc(Oc5ccnc6[nH]c(C)cc56)cnc4[C@H](C)C3)cc2C(F)(F)F)CC1 [XI-5]	–	< 500
CCN1CCN(Cc2ccc(NC(=O)N3Cc4cc(Oc5ncnc6[nH]c(C)cc56)cnc4[C@@H](C)C3)cc2C(F)(F)F)CC1 [XI-6]	–	< 500
CCN1CCN(Cc2ccc(NC(=O)N3CCc4ncc(Oc5ncnc6[nH]c(C)cc56)cc4[C@@H]3C)cc2C(F)(F)F)CC1 [XI-7]	–	500 to 5000
CCN1CCN(Cc2ccc(NC(=O)N3CCc4ncc(Oc5ncnc6[nH]c(C)cc56)cc4[C@H]3C)cc2C(F)(F)F)CC1 [XI-8]	–	5000 to 10000
CCN1CCN(Cc2ccc(NC(=O)N3Cc4cc(Oc5ccnc6[nH]ccc56)cnc4[C@@H](C)C3)cc2C(F)(F)F)CC1 [XI-10]	–	< 500
CCN1CCN(Cc2ccc(NC(=O)N3Cc4cc(Oc5ccnc6[nH]ccc56)cnc4[C@H](C)C3)cc2C(F)(F)F)CC1 [XI-11]	–	< 500
